This is an account of results in US10202391B2, “Chemical compounds” (AstraZeneca AB, priority 2015, dated 2019).

For one experiment, the target named is T1, ERK2 (Homo sapiens, UniProt P28482).
T1 construct: made in house
Kind of experiment: ERK2 Rapidfire Mass Spectrometry Inhibition of Catalysis Assay. The conditions noted are these: 1.2 nM ERK2, 16 μM Erktide, 120 μM ATP (measured Km), 15 minute pre-incubation; read-out: ERK2 Mass Spectrometry Enzyme IC50. In kind it is biochemical. As to the method: (§1) All compounds or DMSO (dimethyl sulphoxide) for the ERK2 Mass Spectrometry and A375 phospho-p90RSK assays were dispensed from source plates containing compounds at 10 mM in 100% (v/v) DMSO or 100% DMSO, directly into assay plates using an Echo 555 Acoustic dispenser (Labcyte Inc™). Depending on the assay, two separate plate preparations were followed. In Workflow A, 10 mM compound stocks were diluted 1:100 using a fixed-tip 96-head Agilent VPrep liquid handler (Agilent Technologies, Santa Clara, Calif.) to give four intermediate dilutions (10 mM, 100 μM, 1 μM, 10 nM). In Workflow B, 10 mM compound stocks were diluted 1:10 using a Tecan Freedom Evo (Tecan Group Ltd., Switzerland), and then 1:100 using the Echo 555 and Labcyte LX to produce three intermediate dilutions across three Labcyte qualified source plates (1 mM, 10 μM, 100 nM). These intermediate dilution plates were then used by the Echo 555 to generate final assay-ready compound plates with a 12 point dose range (10, 3, 1, 0.25, 0.1, 0.03, 0.01, 0.0025, 0.001, 0.0003, 0.0001, 0.0000125 μM) in order to calculate compound IC50s, with a total DMSO concentration in the assay of 1%. For the ERK2 Mass Spectrometry assay Workflow B was used. For the A375 phospho-p90RSK cell assay, the intermediate 1:100 dilution plate described in Workflow A was used by the Echo to dispense compounds and DMSO directly into the cell plates with a 12 point dose range (30, 10, 3.125, 1.25, 0.3, 0.1, 0.03125, 0.0125, 0.003, 0.001, 0.0003125, 0.00003 μM) in order to calculate compound IC50's, with a total DMSO concentration in the assay of 0.3%.
ERK2 Rapidfire Mass Spectrometry Inhibition of Catalysis Assay
MEK U911-activated ERK2 protein was expressed and purified in-house. Enzyme and substrate solutions were made up in assay buffer consisting of 50 mM Tris (pH 7.5), 10 mM MgCl2, 0.1 mM EGTA (ethylene glycol tetraacetic acid), 10 mM DTT (dithiothreitol) and 0.01% (v/v) CHAPS (3-[(3-Cholamidopropyl)dimethylammonio]-1-propanesulfonate). 1.2 nM ERK2 protein was prepared in assay buffer and 10 μl was dispensed into each well of a polypropylene, 384-well plate (#781201, Greiner) containing test and reference control compounds. […] The reaction was allowed to progress for 20 minutes at room temperature before being quenched by the addition of 80 al 1% (v/v) formic acid. The assay plates were then run on the RapidFire Mass Spectrometry platform (Agilent) to measure substrate (unphosphorylated Erktide) and product (phosphorylated Erktide) levels. Data was analysed and IC50's (half maximal inhibitory concentration) were calculated using Genedata Screener® software.

Experiment [1] concerns phospho-p90RSK in A375 cell line. Kind of experiment: A375 Phospho-p90RSK Cellular Assay. In kind it is cell-based, human. The conditions noted are these: A375 cells, 2 hours incubation. As to the method: as §1
A375 Phospho-p90RSK Cellular Assay
A375 cells were cultured in cell media composed of DMEM (Dulbecco's modified Eagle's medium), 10% (v/v) Foetal Calf Serum and 1% (v/v) L-Glutamine. After harvesting, cells were dispensed into black, 384-well Costar plates (#3712, Corning) to give 2400 cells per well in a total volume of 40 μl cell media, and were incubated overnight at 37° C., 90% relative humidity and 5% CO2 in a rotating incubator. Test compounds and reference controls were dosed directly into the cell plates using a Labcyte Echo 555 acoustic dispenser. The cell plates were then incubated for 2 hours at 37° C. before being fixed by the addition of 20 μl 12% formaldehyde in PBS/A (4% final concentration), followed by a 20 minute room temperature incubation, and then a 2× wash with 150 μl PBS/A (phosphate buffered saline containing albumin) using a BioTek ELx405 platewasher. Cells were permeabilised with 20 μl 0.1% Triton X-100 in PBS/A for 20 minutes at room temperature, and then washed 1× with 100 μl PBS/A. Primary phospho-p90RSK (Thr359) (D1E9) rabbit monoclonal antibody (#8753, Cell Signaling Technology) was diluted 1:1000 in assay buffer (0.05% (v/v) Tween, 5% (v/v) Foetal Calf Serum, in PBS/A), 20 μl added per well, and plates were incubated at 4° C. overnight. Cell plates were washed 2× with 200 μl PBS/T (phosphate buffered saline containing Tween-20), then 20 μl 1:500 dilution in assay buffer of Alexa Fluor® 647 goat anti-rabbit IgG secondary antibody (#A31573, Molecular Probes, Life Technologies), with a 1:5000 dilution of Hoechst 33342, was added per well. Following a 90 minute incubation at room temperature, plates were washed 2× with 200 μl PBS/T, and 40 μl PBS/A was added per well. Stained cell plates were covered with black lid seals, and then read on a Cellomics ArrayScan™ VTI imaging platform (Thermo Scientific), using an XF53 filter with 10× objective, with a LED light source set-up to analyse nuclear staining with Hoechst 33342 (405 nm) and secondary antibody staining of phospho-p90RSK (647 nm). Data was analysed and IC50's were calculated using Genedata Screener® software.

The next experiment deals with A549 xenograft. The experiment is described as follows: Tumour growth inhibition in A549 xenograft model. In kind it is in vivo, mice. Particulars: selumetinib 25 mg/kg BiD or Example 18a 25 mg/kg QD, peroral, continuously for 3 weeks, relative to vehicle. As to the method:
A549 is a human non small cell lung cancer line carrying an oncogenic mutation in the KRAS gene (G12S). Female nude mice (Harlan, UK) were implanted subcutaneously (s.c.) on the left flank, with 5×10^6 A549 cells (ATCC) per mouse.
Tumour growth was monitored by twice weekly calliper measurement and volumes calculated using elliptical formula (pi/6×width×width×length). Once tumours had reached a volume of ˜200-300 mm^3 animals were randomised into groups of 7-11 and were treated with a continuous combination schedule of selumetinib (ARRY-142886) 25 mg/kg BiD and Example 18a 25 mg/kg QD (four hours after first selumetinib dose), both were dosed by peroral route. Tumour volumes were measured twice weekly after dosing commenced.
Selumetinib was formulated in HPMC/Tween (0.5% Methocel [hydroxypropyl methocellulose]/0.1% Polysorbate 80), the suspension was stirred over night. Example 18a was formulated in 10% DMSO, 90% of a 40% kleptose solution (Kleptose is sourced from Roquette—Pharma [Trademarked] Hydroxypropyl betacyclodextrin—suitable for in-vivo use and formulations).
Studies were performed in the A549 xenograft model. Selumetinib was dosed twice daily (BiD) 8 hours apart and Example 18a was dosed once daily (QD) 4 hours after the first selumetinib dose. Both compounds were dosed continuously for 3 weeks. Both vehicles were dosed in the vehicle group.

T1 sequence (P28482 whole entry): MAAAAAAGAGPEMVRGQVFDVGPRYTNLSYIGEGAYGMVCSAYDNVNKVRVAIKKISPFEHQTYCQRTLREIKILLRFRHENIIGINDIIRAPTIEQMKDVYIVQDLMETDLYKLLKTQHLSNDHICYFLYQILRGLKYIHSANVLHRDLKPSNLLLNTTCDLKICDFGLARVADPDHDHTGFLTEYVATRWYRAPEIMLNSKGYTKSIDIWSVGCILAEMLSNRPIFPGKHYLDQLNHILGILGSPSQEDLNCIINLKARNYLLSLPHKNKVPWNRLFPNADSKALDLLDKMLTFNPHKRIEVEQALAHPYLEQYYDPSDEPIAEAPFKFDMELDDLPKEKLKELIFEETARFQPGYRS

Take `COC[C@H]1Cn2cc(-c3nc(Nc4ccnn4C)ncc3C)nc2C(=O)N1Cc1ccc(F)c(F)c1` [Example 18a, (R)-7-(3,4-Difluorobenzyl)-6-(methoxymethyl)-2-(5-methyl-2-((1-methyl-1H-pyrazol-5-yl)amino)pyrimidin-4-yl)-6,7-dihydroimidazo[1,2-a]pyrazin-8(5H)-one Ethanesulfonic acid adduct Form 1]: the IC50 at ERK2 came to 0.6 nM; in experiment [1], 7.4 nM. Moreover, in the experiment with A549 xenograft, the “tumour growth, single agent” value is reported as “reduced tumour growth relative to vehicle only control”.

In the case of `Cc1cnc(Nc2ccnn2C)nc1-c1cn2c(n1)C(=O)N(Cc1cc(C(F)(F)F)ncn1)[C@@H](C)C2` [Example 32, (S)-6-Methyl-2-(5-methyl-2-((1-methyl-1H-pyrazol-5-yl)amino)pyrimidin-4-yl)-7-((6-(trifluoromethyl)pyrimidin-4-yl)methyl)-6,7-dihydroimidazo[1,2-a]pyrazin-8(5H)-one], the IC50 on ERK2 came to 0.9 nM; in experiment [1] (Homo sapiens, A-375), 99 nM.

For `Cc1cnc(Nc2ccnn2C)nc1-c1cn2c(n1)C(=O)N(Cc1ccc(F)c(F)c1)CC2` [Example 33, 7-(3,4-Difluorobenzyl)-2-(5-methyl-2-((1-methyl-1H-pyrazol-5-yl)amino)pyrimidin-4-yl)-6,7-dihydroimidazo[1,2-a]pyrazin-8(5H)-one], the IC50 on ERK2 is 0.8 nM; in experiment [1] (Homo sapiens, A-375, 2 h) it was 31 nM.

Regarding `Cc1cnc(Nc2ccnn2C)nc1-c1cn2c(n1)C(=O)N(Cc1cccc(C(F)(F)F)n1)[C@H](C)C2` [Example 36, (R)-6-Methyl-2-(5-methyl-2-((1-methyl-1H-pyrazol-5-yl)amino)pyrimidin-4-yl)-7-((6-(trifluoromethyl)pyridin-2-yl)methyl)-6,7-dihydroimidazo[1,2-a]pyrazin-8(5H)-one], the concentration for half-maximal inhibition (IC50) worked out at 1.4 nM on ERK2 and 51 nM in experiment [1] (Homo sapiens, A-375).

In the case of `Cc1cnc(Nc2ccnn2C)nc1-c1cn2c(n1)C(=O)N(Cc1cccc(C(F)F)n1)[C@H](C)C2` [Example 37, (R)-7-((6-(Difluoromethyl)pyridin-2-yl)methyl)-6-methyl-2-(5-methyl-2-((1-methyl-1H-pyrazol-5-yl)amino)pyrimidin-4-yl)-6,7-dihydroimidazo[1,2-a]pyrazin-8(5H)-one], the concentration for half-maximal inhibition (IC50) worked out at 0.7 nM on ERK2 and 64 nM in experiment [1] (Homo sapiens, A-375).

Consider `COC[C@H]1Cn2cc(-c3nc(Nc4ccnn4C)ncc3C)nc2C(=O)N1Cc1cccc(C(F)F)c1` [Example 38, (R)-7-(3-(Difluoromethyl)benzyl)-6-(methoxymethyl)-2-(5-methyl-2-((1-methyl-1H-pyrazol-5-yl)amino)pyrimidin-4-yl)-6,7-dihydroimidazo[1,2-a]pyrazin-8(5H)-one], for which the IC50 was determined as 0.7 nM on ERK2 and 8 nM in experiment [1] (Homo sapiens, A-375).

Regarding `COC[C@H]1Cn2cc(-c3nc(Nc4ccnn4C)ncc3C)nc2C(=O)N1Cc1cccc(C(F)(F)F)n1` [Example 39, (R)-6-(Methoxymethyl)-2-(5-methyl-2-((1-methyl-1H-pyrazol-5-yl)amino)pyrimidin-4-yl)-7-((6-(trifluoromethyl)pyridin-2-yl)methyl)-6,7-dihydroimidazo[1,2-a]pyrazin-8(5H)-one], the concentration for half-maximal inhibition (IC50) on ERK2 stood at 1.8 nM; in experiment [1] (Homo sapiens, A-375) it was 70 nM.

Regarding `COC[C@H]1Cn2cc(-c3nc(Nc4ccnn4C)ncc3C)nc2C(=O)N1Cc1cc(F)cc(F)c1` [Example 40, (R)-7-(3,5-difluorobenzyl)-6-(methoxymethyl)-2-(5-methyl-2-((1-methyl-1H-pyrazol-5-yl)amino)pyrimidin-4-yl)-6,7-dihydroimidazo[1,2-a]pyrazin-8(5H)-one], the IC50 at ERK2 was 1.1 nM; in experiment [1] (Homo sapiens, A-375) it was 32 nM.

Consider `COC[C@H]1Cn2cc(-c3nc(Nc4ccnn4C)ncc3C)nc2C(=O)N1Cc1cccc(OC)c1` [Example 41, (R)-7-(3-Methoxybenzyl)-6-(methoxymethyl)-2-(5-methyl-2-((1-methyl-1H-pyrazol-5-yl)amino)pyrimidin-4-yl)-6,7-dihydroimidazo[1,2-a]pyrazin-8(5H)-one], for which the half-inhibitory concentration (IC50) worked out at 1.5 nM at ERK2 and 130 nM in experiment [1] (Homo sapiens, A-375).

The term IC50 denotes the point on the concentration scale where inhibition reaches its midpoint.
